# Data published in patent US20240415914A1, “Water Dispersible Cannabinoid Compositions” (priority 2021, published 2024).
# Like-named read-outs stand apart in the source and are kept apart here.
# Key:
# [1] = format: physicochemical; details: stored at room temperature (21-25° C.)
# Procedure: At each time period, 0.05 g of powder was dissolved in 10 ml-15 of ethanol, diluted to fall within the analytical range, and injected into the LCMSMS for analysis.
# [2] = Stability of cannabinoid and Vitamin E components of Beverage 2 (AB Red) stored at 8° C. and 21-25° C., LCMSMS over 570 days
# Procedure: The LCMSMS was calibrated for 0-50 ng/ml cannabinoids with the same resin material used in the preparation of the concentrates. At each time period, 100 μml of beverage was diluted with 10 ml of methanol and injected into the LCMSMS for analysis.
smiles,measurement,setting,value
CC(=O)Oc1c(C)c(C)c2c(c1C)CCC(C)(CCC[C@H](C)CCC[C@H](C)CCCC(C)C)O2 (stereo partly drawn) [α-Tocopheryl acetate],Stability in Powder Concentrate (content by LCMSMS),[1]; day 0,2.15 mg/g powder
same,Stability in Powder Concentrate (content by LCMSMS),[1]; day 1,2.19 mg/g powder
same,Stability in Powder Concentrate (content by LCMSMS),[1]; day 2,2.11 mg/g powder
same,Stability in Powder Concentrate (content by LCMSMS),[1]; day 3,2.18 mg/g powder
same,Stability in Powder Concentrate (content by LCMSMS),[1]; day 5,2.24 mg/g powder
same,Stability in Powder Concentrate (content by LCMSMS),[1]; day 8,2.23 mg/g powder
same,Stability in Powder Concentrate (content by LCMSMS),[1]; day 9,2.09 mg/g powder
same,Stability in Powder Concentrate (content by LCMSMS),[1]; day 10,2.09 mg/g powder
same,Stability in Powder Concentrate (content by LCMSMS),[1]; day 11,2.20 mg/g powder
same,Stability in Powder Concentrate (content by LCMSMS),[1]; day 12,2.17 mg/g powder
same,Stability in Powder Concentrate (content by LCMSMS),[1]; day 15,2.24 mg/g powder
same,Stability in Powder Concentrate (content by LCMSMS),[1]; day 16,2.15 mg/g powder
same,Stability in Powder Concentrate (content by LCMSMS),[1]; day 17,2.13 mg/g powder
same,Stability in Powder Concentrate (content by LCMSMS),[1]; day 18,2.10 mg/g powder
same,Stability in Powder Concentrate (content by LCMSMS),[1]; day 19,2.21 mg/g powder
same,Stability in Powder Concentrate (content by LCMSMS),[1]; day 22,2.11 mg/g powder
same,Stability in Powder Concentrate (content by LCMSMS),[1]; day 23,2.16 mg/g powder
same,Stability in Powder Concentrate (content by LCMSMS),[1]; day 24,2.09 mg/g powder
same,Stability in Powder Concentrate (content by LCMSMS),[1]; day 25,2.24 mg/g powder
same,Stability in Powder Concentrate (content by LCMSMS),[1]; day 26,2.10 mg/g powder
same,Stability in Powder Concentrate (content by LCMSMS),[1]; day 29,2.21 mg/g powder
same,Stability in Powder Concentrate (content by LCMSMS),[1]; day 30,2.08 mg/g powder
same,Stability in Powder Concentrate (content by LCMSMS),[1]; day 60,2.15 mg/g powder
same,Stability in Powder Concentrate (content by LCMSMS),[1]; day 90,2.24 mg/g powder
same,Stability in Powder Concentrate (content by LCMSMS),[1]; day 120,2.17 mg/g powder
same,Stability in Powder Concentrate (content by LCMSMS),[1]; day 150,2.18 mg/g powder
same,Stability in Powder Concentrate (content by LCMSMS),[1]; day 180,2.20 mg/g powder
same,Stability in Powder Concentrate (content by LCMSMS),[1]; day 210,2.15 mg/g powder
same,Stability in Powder Concentrate (content by LCMSMS),[1]; day 240,2.23 mg/g powder
same,Stability in Powder Concentrate (content by LCMSMS),[1]; day 270,2.13 mg/g powder
same,Stability in Powder Concentrate (content by LCMSMS),[1]; day 300,2.09 mg/g powder
same,Stability in Powder Concentrate (content by LCMSMS),[1]; day 330,2.15 mg/g powder
same,Stability in Powder Concentrate (content by LCMSMS),[1]; day 360,2.12 mg/g powder
same,Stability in Powder Concentrate (content by LCMSMS),[1]; day 390,2.21 mg/g powder
same,Stability in Powder Concentrate (content by LCMSMS),[1]; day 420,2.21 mg/g powder
same,Stability in Powder Concentrate (content by LCMSMS),[1]; day 450,2.07 mg/g powder
same,Stability in Powder Concentrate (content by LCMSMS),[1]; day 480,2.10 mg/g powder
same,Stability in Powder Concentrate (content by LCMSMS),[1]; day 510,2.15 mg/g powder
same,Stability in Powder Concentrate (content by LCMSMS),[1]; day 540,2.21 mg/g powder
same,Stability in Powder Concentrate (content by LCMSMS),[1]; day 570,2.13 mg/g powder
same,Stability of Vitamin Es in AB Red,"[2]; 8° C., 0 days",12.5 µg/mL
same,Stability of Vitamin Es in AB Red,"[2]; 8° C., 1 days",11.6 µg/mL
same,Stability of Vitamin Es in AB Red,"[2]; 8° C., 2 days",11.5 µg/mL
same,Stability of Vitamin Es in AB Red,"[2]; 8° C., 3 days",11.6 µg/mL
same,Stability of Vitamin Es in AB Red,"[2]; 8° C., 5 days",12.3 µg/mL
same,Stability of Vitamin Es in AB Red,"[2]; 8° C., 8 days",12.2 µg/mL
same,Stability of Vitamin Es in AB Red,"[2]; 8° C., 9 days",12.1 µg/mL
same,Stability of Vitamin Es in AB Red,"[2]; 8° C., 10 days",12.6 µg/mL
same,Stability of Vitamin Es in AB Red,"[2]; 8° C., 11 days",11.9 µg/mL
same,Stability of Vitamin Es in AB Red,"[2]; 8° C., 12 days",12.4 µg/mL
same,Stability of Vitamin Es in AB Red,"[2]; 8° C., 15 days",12.0 µg/mL
same,Stability of Vitamin Es in AB Red,"[2]; 8° C., 16 days",11.5 µg/mL
same,Stability of Vitamin Es in AB Red,"[2]; 8° C., 17 days",11.8 µg/mL
same,Stability of Vitamin Es in AB Red,"[2]; 8° C., 18 days",12.5 µg/mL
same,Stability of Vitamin Es in AB Red,"[2]; 8° C., 19 days",12.5 µg/mL
same,Stability of Vitamin Es in AB Red,"[2]; 8° C., 22 days",12.5 µg/mL
same,Stability of Vitamin Es in AB Red,"[2]; 8° C., 23 days",11.9 µg/mL
same,Stability of Vitamin Es in AB Red,"[2]; 8° C., 24 days",12.6 µg/mL
same,Stability of Vitamin Es in AB Red,"[2]; 8° C., 25 days",12.3 µg/mL
same,Stability of Vitamin Es in AB Red,"[2]; 8° C., 26 days",11.6 µg/mL
same,Stability of Vitamin Es in AB Red,"[2]; 8° C., 29 days",11.7 µg/mL
same,Stability of Vitamin Es in AB Red,"[2]; 8° C., 30 days",12.1 µg/mL
same,Stability of Vitamin Es in AB Red,"[2]; 8° C., 60 days",11.4 µg/mL
same,Stability of Vitamin Es in AB Red,"[2]; 8° C., 90 days",11.6 µg/mL
same,Stability of Vitamin Es in AB Red,"[2]; 8° C., 120 days",11.7 µg/mL
same,Stability of Vitamin Es in AB Red,"[2]; 8° C., 150 days",12.3 µg/mL
same,Stability of Vitamin Es in AB Red,"[2]; 8° C., 180 days",12.6 µg/mL
same,Stability of Vitamin Es in AB Red,"[2]; 8° C., 210 days",11.8 µg/mL
same,Stability of Vitamin Es in AB Red,"[2]; 8° C., 240 days",11.2 µg/mL
same,Stability of Vitamin Es in AB Red,"[2]; 8° C., 270 days",11.6 µg/mL
same,Stability of Vitamin Es in AB Red,"[2]; 8° C., 300 days",11.2 µg/mL
same,Stability of Vitamin Es in AB Red,"[2]; 8° C., 330 days",11.3 µg/mL
same,Stability of Vitamin Es in AB Red,"[2]; 8° C., 390 days",11.4 µg/mL
same,Stability of Vitamin Es in AB Red,"[2]; 8° C., 420 days",11.2 µg/mL
same,Stability of Vitamin Es in AB Red,"[2]; 8° C., 450 days",11.4 µg/mL
same,Stability of Vitamin Es in AB Red,"[2]; 8° C., 480 days",10.7 µg/mL
same,Stability of Vitamin Es in AB Red,"[2]; 8° C., 510 days",10.6 µg/mL
same,Stability of Vitamin Es in AB Red,"[2]; 8° C., 540 days",10.8 µg/mL
same,Stability of Vitamin Es in AB Red,"[2]; 8° C., 570 days",10.8 µg/mL
same,Stability of Vitamin Es in AB Red,"[2]; 21-25° C., 0 days",12.5 µg/mL
same,Stability of Vitamin Es in AB Red,"[2]; 21-25° C., 1 days",12.1 µg/mL
same,Stability of Vitamin Es in AB Red,"[2]; 21-25° C., 2 days",12.5 µg/mL
same,Stability of Vitamin Es in AB Red,"[2]; 21-25° C., 3 days",11.7 µg/mL
same,Stability of Vitamin Es in AB Red,"[2]; 21-25° C., 5 days",12.2 µg/mL
same,Stability of Vitamin Es in AB Red,"[2]; 21-25° C., 8 days",11.4 µg/mL
same,Stability of Vitamin Es in AB Red,"[2]; 21-25° C., 9 days",11.6 µg/mL
same,Stability of Vitamin Es in AB Red,"[2]; 21-25° C., 10 days",12.5 µg/mL
same,Stability of Vitamin Es in AB Red,"[2]; 21-25° C., 11 days",12.3 µg/mL
same,Stability of Vitamin Es in AB Red,"[2]; 21-25° C., 12 days",12.3 µg/mL
same,Stability of Vitamin Es in AB Red,"[2]; 21-25° C., 15 days",12.1 µg/mL
same,Stability of Vitamin Es in AB Red,"[2]; 21-25° C., 16 days",12.1 µg/mL
same,Stability of Vitamin Es in AB Red,"[2]; 21-25° C., 17 days",11.3 µg/mL
same,Stability of Vitamin Es in AB Red,"[2]; 21-25° C., 18 days",12.0 µg/mL
same,Stability of Vitamin Es in AB Red,"[2]; 21-25° C., 19 days",12.0 µg/mL
same,Stability of Vitamin Es in AB Red,"[2]; 21-25° C., 22 days",12.1 µg/mL
same,Stability of Vitamin Es in AB Red,"[2]; 21-25° C., 23 days",11.7 µg/mL
same,Stability of Vitamin Es in AB Red,"[2]; 21-25° C., 24 days",11.5 µg/mL
same,Stability of Vitamin Es in AB Red,"[2]; 21-25° C., 25 days",12.4 µg/mL
same,Stability of Vitamin Es in AB Red,"[2]; 21-25° C., 26 days",12.0 µg/mL
same,Stability of Vitamin Es in AB Red,"[2]; 21-25° C., 29 days",11.9 µg/mL
same,Stability of Vitamin Es in AB Red,"[2]; 21-25° C., 30 days",12.6 µg/mL
same,Stability of Vitamin Es in AB Red,"[2]; 21-25° C., 60 days",11.6 µg/mL
same,Stability of Vitamin Es in AB Red,"[2]; 21-25° C., 90 days",12.3 µg/mL
same,Stability of Vitamin Es in AB Red,"[2]; 21-25° C., 120 days",12.3 µg/mL
same,Stability of Vitamin Es in AB Red,"[2]; 21-25° C., 150 days",11.4 µg/mL
same,Stability of Vitamin Es in AB Red,"[2]; 21-25° C., 180 days",12.0 µg/mL
same,Stability of Vitamin Es in AB Red,"[2]; 21-25° C., 210 days",11.6 µg/mL
same,Stability of Vitamin Es in AB Red,"[2]; 21-25° C., 240 days",11.3 µg/mL
same,Stability of Vitamin Es in AB Red,"[2]; 21-25° C., 270 days",11.4 µg/mL
same,Stability of Vitamin Es in AB Red,"[2]; 21-25° C., 300 days",11.2 µg/mL
same,Stability of Vitamin Es in AB Red,"[2]; 21-25° C., 330 days",11.6 µg/mL
same,Stability of Vitamin Es in AB Red,"[2]; 21-25° C., 390 days",11.3 µg/mL
same,Stability of Vitamin Es in AB Red,"[2]; 21-25° C., 420 days",11.3 µg/mL
same,Stability of Vitamin Es in AB Red,"[2]; 21-25° C., 450 days",11.2 µg/mL
same,Stability of Vitamin Es in AB Red,"[2]; 21-25° C., 480 days",10.4 µg/mL
same,Stability of Vitamin Es in AB Red,"[2]; 21-25° C., 510 days",10.4 µg/mL
same,Stability of Vitamin Es in AB Red,"[2]; 21-25° C., 540 days",10.6 µg/mL
same,Stability of Vitamin Es in AB Red,"[2]; 21-25° C., 570 days",10.6 µg/mL
